Each structure is given as a SMILES string. In brackets after ≈: the same amount, converted by molar mass. A value given as a limit tells only on which side of the number the result lay.

The conditions of this series: buffer; pH 7.4; 200.0 µM.
One may read the kinetic solubility as solubility judged after dilution from a stock solution rather than from solid. `O=C(N/C(=C\c1ccco1)C(=O)N1CCOCC1)c1ccco1` showed a kinetic solubility of over 47.4 µg/mL.

The molecule `Cc1cc(NC(=O)c2ccco2)c(=O)n(Cc2c(F)cccc2Cl)c1` yielded a solubility (kinetic) of under 0.4 µg/mL.

Molecule `CCC(=O)Nc1ccc2c(c1)ncn2C` yielded a kinetic solubility of over 30.5 µg/mL.

`CCOC(=O)c1c(-c2ccc(OC)cc2)cn2ccccc12` displayed a kinetic solubility of under 0.6 µg/mL.

Take `Cn1c(N)c(C(=O)Nc2c(Cl)cccc2Cl)sc1=S`: the kinetic solubility is 2.4 µg/mL (≈ 7.18 µM).

Molecule `O=C1CCCCC1Sc1ccc(Cl)cc1[N+](=O)[O-]` (stereo not drawn) returned a solubility (kinetic) of 40.6 µg/mL (≈ 142 µM).

The molecule `N#Cc1ccccc1OCC(=O)NNC(=O)c1ccncc1` returned a solubility (kinetic) of over 44.4 µg/mL.

Molecule `CCC(=O)c1cn(Cc2ccccc2)c2ccccc12` gave a kinetic solubility of 1 µg/mL (≈ 3.8 µM).

As to `COc1ccccc1NC(=O)c1ccc(NC(=O)COC(=O)c2cncc(Br)c2)cc1`, the kinetic solubility was 10 µg/mL (≈ 20.6 µM).

`O=C(COC(=O)c1ccc2ccccc2n1)c1ccc(F)cc1` showed a solubility (kinetic) of 16.8 µg/mL (≈ 54.3 µM).

As for `O=C(NCCNC(=O)c1cnccn1)c1cccc(Cl)c1`, the solubility (kinetic) was 42.7 µg/mL (≈ 140 µM).

`Cc1cccc(C(=O)NCC(=O)N2CCN(c3ccccn3)CC2)c1` returned a kinetic solubility of over 50.8 µg/mL.

With `CNC(=O)c1cnc(-c2ccccc2)nc1-c1ccccc1`, the solubility (kinetic) turned out to be 14.8 µg/mL (≈ 51.2 µM).

As to `Cc1ccnc(NCc2cc(C)ccc2O)c1`, the solubility (kinetic) stood at 6 µg/mL (≈ 26.3 µM).

In turn, `Cn1c(=O)n(CC(N)=O)c(=O)c2c1nc1n2CCCN1Cc1ccccc1` yielded a solubility (kinetic) of 30.8 µg/mL (≈ 83.6 µM).

For the molecule `CN1C(=O)CSC1=Nc1cccc(C(=O)O)c1`, the kinetic solubility is over 37.5 µg/mL.

In turn, `Cn1ncc([N+](=O)[O-])c1C(=O)Nc1ccccc1Cl` gave a kinetic solubility of over 42.1 µg/mL.

As for `O=C1Nc2c(ccc(Cl)c2Cl)C(=O)C1(F)c1ccccc1` (stereo not drawn), the kinetic solubility is under 0.7 µg/mL.

Regarding `Cc1cc(=O)[nH]c(SCC(=O)c2ccc(O)c(O)c2)n1`, the solubility (kinetic) was over 43.8 µg/mL.

`Cc1c(C)c(C)c2[nH]c(=S)[nH]c2c1C` came in with a kinetic solubility of 0.4 µg/mL (≈ 1.94 µM).

Consider `CCC1=NC(c2ccc(Br)cc2)N(O)C1(C)C` (stereo not drawn), for which the kinetic solubility was 41 µg/mL (≈ 138 µM).

Take `O=C(Nc1cccc(Cl)c1)OC1CCCCc2cccnc21` (stereo not drawn): the kinetic solubility amounted to 9.3 µg/mL (≈ 29.4 µM).

The molecule `Cc1cc(C(=O)Nc2ccc(F)cc2C)n(-c2ccccc2)n1` returned a kinetic solubility of over 46.4 µg/mL.

On to `Cn1c(=O)[nH]c(=O)c2c1nc(N1CCCC1)n2CCO`, for which the kinetic solubility was over 41.9 µg/mL.

Consider `Cc1ccc(C(=O)N/N=C\c2ccccn2)cn1`, for which the solubility (kinetic) is over 36 µg/mL.

On to `CCOC(=O)c1ccc2c(c1)nc(-c1ccccn1)n2CC`, for which the kinetic solubility came out at 11.4 µg/mL (≈ 38.6 µM).

Molecule `COc1ccc(C(=O)N2CCc3c([nH]c4ccccc34)C2C(F)(F)F)cc1` (stereo not drawn) showed a kinetic solubility of 1.1 µg/mL (≈ 2.94 µM).

For the molecule `O=C(O)CNS(=O)(=O)c1c(Cl)cccc1Cl`, the solubility (kinetic) is over 42.6 µg/mL.

The molecule `O=C(Cc1ccc(F)cc1)OCN1C(=O)c2ccccc2C1=O` gave a solubility (kinetic) of 39.8 µg/mL (≈ 127 µM).

In turn, `O=C(NCC1CCCO1)c1ccc[nH]1` (stereo not drawn) gave a solubility (kinetic) of over 29.1 µg/mL.

The molecule `O=C(O)[C@@H]1CCCN1C(=O)COc1ccc2c3c(c(=O)oc2c1)CCC3` returned a solubility (kinetic) of over 53.6 µg/mL.

As for `Cc1cc(C)c(CN2CCC(CO)(CCOc3ccccc3)CC2)cc1C`, the solubility (kinetic) was 38.6 µg/mL (≈ 105 µM).

Molecule `COc1ccc(OC)c2nc(-c3ccc4c(c3)OCO4)ccc12` showed a kinetic solubility of under 0.7 µg/mL.

In turn, `COc1cc(OC)nc(Oc2ccccc2/C=N/O)n1` had a kinetic solubility of over 41.3 µg/mL.

`Cc1cc(C)c(C(=O)NNC(=O)c2cccnc2)c(C)c1` displayed a solubility (kinetic) of over 42.5 µg/mL.

With `Cc1cccc(NC(=O)C[n+]2ccc(N(C)C)cc2)c1.[Cl-]`, the kinetic solubility came out at 45.9 µg/mL.

Regarding `Cc1ccc(-c2noc(-c3ccno3)n2)cc1`, the solubility (kinetic) was determined as 2.4 µg/mL (≈ 10.6 µM).

As to `O=C(NCc1ccccc1Cl)C1CCCO1` (stereo not drawn), the kinetic solubility was found to be 32.1 µg/mL (≈ 134 µM).

`Cc1cc(C(=O)Nc2ccccc2)c2ccccc2n1` registered a solubility (kinetic) of 3 µg/mL (≈ 11.4 µM).

Molecule `O=C(NCc1ccc(Cl)cc1)C1CCN(C(=O)c2ccco2)CC1` came in with a solubility (kinetic) of over 52 µg/mL.

Consider `Cc1nc(SCCO)c([N+](=O)[O-])[nH]1`, for which the kinetic solubility is over 30.5 µg/mL.

With `CNS(=O)(=O)c1cc(N)ccc1C`, the kinetic solubility came out at 26.2 µg/mL (≈ 131 µM).

For `CCCN1CCC(NC(=O)Nc2cc(Cl)ccc2OC)CC1`, the solubility (kinetic) stood at 47.6 µg/mL (≈ 146 µM).

In turn, `CCN(C(=S)NC(=O)C1CCCC1)C1CCCCC1` returned a kinetic solubility of over 42.4 µg/mL.

The molecule `Cc1ccc[n+](C(C)C(=O)c2ccc(Cl)cc2)c1.[Br-]` (stereo not drawn) registered a kinetic solubility of 44.9 µg/mL.

`COc1cc(OC)cc(C(=O)NC(C(=O)N2CCC2)C(C)C)c1` (stereo not drawn) gave a kinetic solubility of over 48.1 µg/mL.

Turning to `Cc1ccc(C(=O)NCCCNC(=O)c2ccc(Cl)cc2)cn1`, the solubility (kinetic) came out at 36.6 µg/mL (≈ 110 µM).

In turn, `Cc1nc(-c2ccc(C#N)cc2)cs1` came in with a solubility (kinetic) of 13.5 µg/mL (≈ 67.4 µM).

On to `O=C(c1ccccc1Br)N1CCc2c([nH]c3ccccc23)C1`, for which the solubility (kinetic) is 14.9 µg/mL (≈ 41.9 µM).

In the case of `O=C(O)CNS(=O)(=O)c1cccc(Cl)c1`, the solubility (kinetic) was over 37.5 µg/mL.

`O=C(O)CC1(CC(=O)Nc2cc3ccccc3cn2)CCCCC1` showed a kinetic solubility of 40.7 µg/mL (≈ 125 µM).

With `CC(=O)N1CCN(CC(=O)Nc2cc(S(=O)(=O)N3CCCCC3)ccc2C)CC1`, the kinetic solubility was over 63.4 µg/mL.

`O=C(COC(=O)c1ccc(Cl)nc1)NCCC1=CCCCC1` displayed a solubility (kinetic) of 36.6 µg/mL (≈ 113 µM).

The record behind these values is PubChem BioAssay AID1996.
